Measured values taken from patent publication US20220323536A1, “USE OF BETA-L-ASPARTYL-L-ARGININE ON SENESCENT SKIN” (SYMRISE AG, priority 2019, published 2022).

Assays:
senescent fibroblasts [1] = assay: Reduction of mitochondrial DNA (mtDNA) in senescent fibroblasts (in vitro study); type: cell-based; settings: 5 days treatment; FIG. 5
Experimental: Disruptions of the nuclear and mitochondrial DNA were studied, analyzed by detecting nucleus fragments, the mitochondrial DNA content, the mitochondrial mass and the average cell density, the latter as representation of viability.
(§1) The cells were treated with β-L-aspartyl-L-arginine for 5 days. The cell images were taken after incubation. In order to label the nuclear and mitochondrial DNA, the cells were incubated with a fluorescent dye for 30 minutes. After removal of the dye, the images were taken with an epifluorescence microscope. Image analysis was performed in a 3-fold determination. Sampling 10 pictures per experimental condition or repetition, respectively.
(§2) Data collection: The images were taken with a Zeiss axioplan microscope. Image analysis was performed with a software developed by ICDD.
(§3) Data interpretation: The following data was collected: average cell size, mtDNA content, mitochondrial density, mitochondrial biogenesis, mitochondrial mass and cell nucelus size. The average cell number per field was used as control of cell viability for each experimental condition. The effect of active substances was also given as protective effect in comparison to non-treated cells. The effect of the positive control was included for comparison.

fibronectin = assay: Stimulation of fibronectin proteins in the dermis (ex vivo study); type: cell-based; settings: 4 μl topically every day during 6 days, vs untreated skin; FIG. 7
Experimental: (§4) 4 μl of β-L-aspartyl-L-arginine were applied on the skin every day during 6 days of treatment at 37° C., 5% CO2 and 100% humidity. 12 skin cuts were immunohistochemically stained with selected antibodies. The papillary dermis was selected for the analysis because it is the part of the dermis, which changes the most in reaction to a previous treatment.
(§5) The area to be analyzed was carefully selected while it was made sure that irregular structures such as blood vessels, sweat glands or hair follicles were avoided.
(§6) For the assessment of the results, both, the color intensity and the color distribution were measured using Image-J analysis software (NIH, USA)—thus a semi-quantitative assessment was possible.

[2] = Reduction of wrinkle intensity (clinical study); type: in vivo, human
Experimental: (§7) The study was conducted with 26 female volunteers of age 53 +/−3 years. The application was done twice daily for two months. On one side of the face, the product is applied, on the other side the placebo.
Imaging: The evaluation is based on high-resolution digital photography under controlled conditions. Pictures were taken at the start of the study, after 28 days and after 56 days of product application.
The subjects were positioned in front of the optical arrangement and the face was photographed as portrait or close-up. The persons were photographed seated at controlled lighting. The conditions were kept constant during all photographs to ensure comparability.
Reduction of wrinkles and lines: The assessment of wrinkles and lines was done in a limited area around the eye of the subject. The intensity of the wrinkles and lines was measured as parameter R. The larger the value for R, the more pronounced are the wrinkles and lines. The relative reduction of wrinkles is calculated according to the following formula:
R%=100(Ri−RF)/Ri(R=wrinkle intensity, i=initial; f=final)
Data analysis and interpretation: For data analysis the following software packages were used: […]

[3] = Improvement of skin firmness and elasticity (clinical study, cutometer); type: in vivo, human
Experimental: as §7
The method of measurement relies on suction. A vacuum is created in the gauge head of the cutometer, which sucks the skin into the measuring device. An optical arrangement, consisting of a light source and a light detector, measures the light intensity, which enters dependent on how much skin is sucked in. The resulting parameters are elasticity and skin firmness.
Skin firmness represents the resistance, which the skin creates against the suction by the vacuum. Elasticity, is the time, which the skin needs to return to its original state.

senescent fibroblasts [4] = assay: Reduction of nucleus to cell size (N/C) ratio in senescent fibroblasts (in vitro study); type: cell-based; settings: vs untreated senescent fibroblasts; FIG. 4
Experimental: (§8) Senescent cells were incubated with β-L-aspartyl-L-arginine. Cell size and nuclear size were measured while cell density reflects the viability. […] See example 4 for the details of experimental procedure.
as §1, §2, §3

collagen Typ III = assay: Stimulation of collagen Type III (ex vivo study); type: cell-based; settings: vs untreated skin; FIG. 12
Experimental: as §4, §5, §6

human skin explants [5] = assay: Protection against carbonylation of proteins (ex vivo study); type: cell-based; settings: UV stimulated skin treated with 0.2% and 0.5%, vs untreated UV stimulated skin; FIG. 9
Experimental: Detection of carbonylation: After removing the fatty and connective tissue, the frozen skin samples are weighed and cut. The skin pieces of the tested samples are combined and homogenized in a cold extraction buffer. Cell lysates are collected by centrifugation.
The measurement of the carbonylated protein is performed with the “OxyBlot Protein_Oxidation Kit by Millipore”, (#S7150) according to the protocol of the producer. Only the protein bands of a size between 50 kDa and 150 kDa were taken into account for the calculation. The obtained amount of carbonylated protein is normalized with the actin band (which is constant) and given with respect to the non-treated sample.

senescent fibroblasts [6] = assay: Reduction of mitochondrial ROS in senescent fibroblasts (in vitro study); type: cell-based
Experimental: Using a fluorescent dye, the antioxidative potential of β-L-aspartyl-L-arginine with respect to mitochondrial reactive oxygen species (ROS) was quantified. Senescent cells were incubated with β-L-aspartyl-L-arginine for 24 hours. Subsequently, the treated and non-treated senescent cells as well as the treated and non-treated non-senescent cells were incubated with the fluorescent dye for 30 minutes at 37° C. After washing, a portion of the non-senescent cells was treated with the oxidative reference substance H2O2 (100 μM). The mitochondrial ROS production was measured immediately every 5 mins over a period of 60 minutes. A microtiter plate reader (Varioskan-Thermo) was used as measuring device. During the kinetic measurement, the cells were further incubated at 37° C. Using fluorimetry, the antioxidative activity was measured in parallel with the viability of the cell. The experiments comprised a blank as well as a negative and a positive control. The positive control consists of […]. […] Senescent cells treated with resveratrol were used as reference for the comparison of the activity of β-L-aspartyl-L-arginine in the decrease of endogenous production of mitochondrial ROS in senescent cells. β-L-aspartyl-L-arginine was measured in a 4-fold measurement. […]

senescent fibroblasts [7] = assay: Reduction of cell size in senescent fibroblasts (in vitro study); type: cell-based; settings: amounts of more than 1.0 mM, vs untreated senescent fibroblasts; FIG. 3
Experimental: as §8, §1, §2, §3

human skin explants [8] = assay: Reduction of ROS score after UVA irradiation on human skin explants (ex vivo study); type: cell-based; settings: topical, 18 h incubation, vs untreated UV irradiated skin, FIG. 6
Text: Cultivation of skin models: The skin was cut into about 8×3 mm large pieces (diameter×layer thickness of the models) and cultivated until the planned end of the experiment. Per treatment, six models each were used. The skin models were cultivated as air-liquid-interface cultures in a perforated stainless steel ring with contact to the culture medium (modified Williams 'E Medium) until the desired endpoint.
Treatment: Test substances and controls were applied topically. To this end, the skin models were carefully cleaned with a cotton pad. Subsequently, 4 μL of each test substance or the control, respectively, were applied to the models and covered with a membrane filter (diameter=6 mm).
The skin models were incubated for 18 h with test substance and positive control, respectively. […]
UV-irradiation: The used sun simulator was a BIO-SUN-system from the company Vilber Lourmat. […] The UV-light emission is constantly monitored and the system stops automatically when the pre-set energy quantity is reached. […]
Of each skin model, two samples were used for image capture with the fluorescence analysis. Each picture was analyzed by determining the fluorescence using Image-J analysis software (NIH, USA). The measured values were normalized over the size of the selected surface.
Statistics: For each treatment of the skin models, the averages of the quantitative data was determined. […]

[9] = Solubility and stability of the powder; type: physicochemical
[10] = after eight weeks, twice daily use of 0.1%

N=C(N)NCCC[C@H](NC(=O)C[C@H](N)C(=O)O)C(=O)O [β-L-aspartyl-L-arginine]
mtDNA in senescent cells (senescent fibroblasts [1]): reduced by β-L-aspartyl-L-arginine to an amount comparable to young replicative cells
fibronectin production in the dermis (fibronectin): stimulate the fibronectin production
volunteers with significant reduction of wrinkle intensity [2, 10]: 85%
reduction of wrinkle intensity compared to a placebo ([2]; after eight weeks, twice daily use of 0.1%, 26 female volunteers): 6.8%
wrinkles and fine lines on crow feet ([2]; four weeks of twice daily use of 0.1%, FIG. 8): visibly smoothes wrinkles and fine lines
enhancement of skin elasticity compared to the placebo [3, 10]: +8.5%
enhancement of skin firmness compared to the placebo [3, 10]: +10.1%
volunteers with significant enhancement of skin elasticity [3, 10]: 100%
volunteers with significant enhancement of skin firmness [3, 10]: 92%
skin firmness ([3]; four weeks of twice daily use of 0.1%, FIG. 10): visibly improves skin firmness
skin elasticity ([3]; four weeks of twice daily use of 0.1%, FIG. 11): visibly improves skin elasticity
nucleus to cell size ratio in senescent fibroblasts (senescent fibroblasts [4]): reduced compared to untreated senescent fibroblasts
collagen Typ III production (collagen Typ III): stimulate the collagen Typ III production
formation of carbonylated proteins (human skin explants [5]): prevent the formation of carbonylated proteins
mitochondrial ROS (mtROS) (senescent fibroblasts [6]; 10 μM, 24 hours incubation, senescent cells vs non-treated senescent cells, FIG. 1): significant reduction of mitochondrial ROS
dosage dependence of the mtROS reduction effect (senescent fibroblasts [6]; values with respect to untreated senescent cells = 100%, FIG. 2): Increasing amounts of β-L-aspartyl-L-arginine show a larger reduction
cell size of senescent fibroblasts (senescent fibroblasts [7]): reduce cell size
ROS score of UV irradiated skin (dermis) (human skin explants [8]): significantly reduces the ROS score
stability ([9]; pH from 5 to 9, up to 50° C.): stable at a pH from 5 to 9 at up to 50 °C
water solubility ([9]; white, odorless powder): water soluble
